# Results published in article PMC11801715, “Activating PKC-ε induces HIV expression with improved tolerability” (PLOS Pathogens, 2025).
# Values joined by “and” are separate entries in the source; they are usually repeats but may differ in a detail not shown here. Equal values may be shown once.
# Tests used:
# [1] = tested on: EGR1 and CD69 mRNA in whole blood; test: EGR1 and CD69 mRNA levels in rat blood (QuantiGene); type: in vivo
# Method: EGR1 and CD69 mRNA expression levels were measured in whole blood, processed using Affymetrix QuantiGene Sample Processing Kit (Thermo Fisher Scientific, catalog QS0111). Quantigene multiplex analysis was performed on 1:3 diluted blood using probes specific for rat EGR1 (Thermo Fisher Scientific, catalog nm_012551) and CD69 (catalog nm_134327), as per the kit’s instructions (Thermo Fisher Scientific, catalog QP-1014) and normalized to PPIB (catalog nm_022536) and β-actin (catalog nm_031144).
# [2] = tested on: HIV p24; test: HIV p24 digital immunoassay in culture supernatants; type: cell-based, HIV-1; conditions: Human immunodeficiency virus 1, CD4+ T, read-out: p24 EC50
# Method: The fully automated Quanterix HD-X analyzer for single molecule detection was utilized to measure HIV p24 levels in culture supernatants (stored frozen at –80°C until use). Upon thaw, Triton X-100 was added to a final concentration of 1% to culture supernatants, incubated for 1 hour at room temperature before analysis on the same day. An in-house standard using purified HIV p24 protein was utilized in place of the standard provided in the p24 Simoa kit (Quanterix, catalog 102215). Briefly, p24 protein purchased from Advanced Biotechnologies, catalog 14-101-050, was reconstituted to 200 ng/mL in complete RPMI and stored at –80 in smaller aliquots. Standard curve was made in a […] dilution series from 40000 to 1.8 fg/ml in complete RPMI with 1% Triton X-100. All other assay reagents and assay reaction conditions followed the manufacturer’s protocol. p24 concentration in experimental samples was calculated based on a p24 calibration curve with 4-parameter curve fitting.
# [3] = tested on: Sprague Dawley rats; test: In vivo rat study: tolerability, clinical pathology, histopathology
# Method: Wild-type male Sprague Dawley (Hsd: Sprague Dawley SD) rats (8–15 weeks old) were sourced from the Covance stock colony for conduct of in vivo studies at Covance Laboratories Inc. (Madison, Wisconsin, USA). Rats were administered a single dose of vehicle control (n = 3), or 0.1, 0.3, 1, or 3 mg/kg C-232A (n = 6), or 10 mg/kg C-233 by intravenous infusion over 30 minutes. Blood samples were collected through 24 hours postdose. Samples for PK measurement of C-232A concentration were processed to plasma and shipped to Gilead Sciences (Foster City, California, USA). Samples were analyzed at Covance Laboratories for hematology and clinical chemistry panels. At unscheduled necropsy (3 mg/kg C-232A), tissues were preserved in 10% neutral-buffered formalin, embedded in paraffin, mounted on slides, and stained with hematoxylin and eosin. Tissues were then evaluated independently (Experimental Pathology Laboratories, Inc).
# [4] = biological target: PKC-θ (Homo sapiens, UniProt Q04759); test: PKC isoform translocation in A549-tGFP cells; type: cell-based; parameters: host or cells: A549; conditions: for EC50: A549-tGFP cells, 60 minutes; for ε selectivity, PKC-θ: EC50 of PKC-θ divided by EC50 of PKC-ε
# Chain of PKC-θ (Q04759 whole entry, canonical isoform): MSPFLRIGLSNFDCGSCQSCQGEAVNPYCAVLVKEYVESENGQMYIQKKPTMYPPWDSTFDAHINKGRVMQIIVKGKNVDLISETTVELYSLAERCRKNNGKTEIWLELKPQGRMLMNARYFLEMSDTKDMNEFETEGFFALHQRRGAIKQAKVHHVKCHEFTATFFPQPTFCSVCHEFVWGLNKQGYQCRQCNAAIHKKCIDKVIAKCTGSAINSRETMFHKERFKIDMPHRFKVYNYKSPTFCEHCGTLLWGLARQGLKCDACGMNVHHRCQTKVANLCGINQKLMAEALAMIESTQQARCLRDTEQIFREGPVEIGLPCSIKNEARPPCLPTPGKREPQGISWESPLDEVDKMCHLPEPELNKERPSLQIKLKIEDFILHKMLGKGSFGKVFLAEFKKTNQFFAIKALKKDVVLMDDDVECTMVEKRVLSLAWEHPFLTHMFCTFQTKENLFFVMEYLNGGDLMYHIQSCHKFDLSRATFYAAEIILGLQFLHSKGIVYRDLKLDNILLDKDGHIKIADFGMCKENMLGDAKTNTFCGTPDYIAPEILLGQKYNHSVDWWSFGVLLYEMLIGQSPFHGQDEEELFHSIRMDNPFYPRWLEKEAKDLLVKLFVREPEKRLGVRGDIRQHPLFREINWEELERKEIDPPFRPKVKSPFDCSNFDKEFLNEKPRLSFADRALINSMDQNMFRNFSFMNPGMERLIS
# Method: (§1) A description of this effort is reported elsewhere.
# (§2) Cellular translocation of PKC isoforms upon activation was determined in 8 A549 cell lines, each expressing a single PKC isoform fused to tGFP (PhenoVista Biosciences). Cells were plated in 384-well plates (80 μL/well) at 10^5 cells/mL in RPMI with 10% FBS and rested overnight. PKC agonist(s) were serially diluted at 1:3 steps in DMSO and added to the cells. After 60 minutes in an incubator at 37 °C, 5% CO2, cells were stained with Hoechst-33342 and fixed with 2% paraformaldehyde for 30 minutes at 4 °C. Cells were then stained with wheat germ agglutinin conjugated to AlexaFluor647 (WGA-647) for 10 minutes at 4 °C, washed to remove excess dye and imaged with Cellomics Array Scan (Thermo Fisher) at room temperature (RT). Images were analyzed using Cellomics automated image analysis algorithm. Plasma membrane translocation was quantified using the ratio between the average fluorescence in the areas at the cell edge defined by WGA-647 and the cytoplasm region.
# [5] = biological target: PKC-η (Homo sapiens, UniProt P24723); test: PKC isoform translocation in A549-tGFP cells; type: cell-based; parameters: host or cells: A549; conditions: for EC50: A549-tGFP cells, 60 minutes; for ε selectivity, PKC-η: EC50 of PKC-η divided by EC50 of PKC-ε
# Chain of PKC-η (P24723 whole entry, canonical isoform): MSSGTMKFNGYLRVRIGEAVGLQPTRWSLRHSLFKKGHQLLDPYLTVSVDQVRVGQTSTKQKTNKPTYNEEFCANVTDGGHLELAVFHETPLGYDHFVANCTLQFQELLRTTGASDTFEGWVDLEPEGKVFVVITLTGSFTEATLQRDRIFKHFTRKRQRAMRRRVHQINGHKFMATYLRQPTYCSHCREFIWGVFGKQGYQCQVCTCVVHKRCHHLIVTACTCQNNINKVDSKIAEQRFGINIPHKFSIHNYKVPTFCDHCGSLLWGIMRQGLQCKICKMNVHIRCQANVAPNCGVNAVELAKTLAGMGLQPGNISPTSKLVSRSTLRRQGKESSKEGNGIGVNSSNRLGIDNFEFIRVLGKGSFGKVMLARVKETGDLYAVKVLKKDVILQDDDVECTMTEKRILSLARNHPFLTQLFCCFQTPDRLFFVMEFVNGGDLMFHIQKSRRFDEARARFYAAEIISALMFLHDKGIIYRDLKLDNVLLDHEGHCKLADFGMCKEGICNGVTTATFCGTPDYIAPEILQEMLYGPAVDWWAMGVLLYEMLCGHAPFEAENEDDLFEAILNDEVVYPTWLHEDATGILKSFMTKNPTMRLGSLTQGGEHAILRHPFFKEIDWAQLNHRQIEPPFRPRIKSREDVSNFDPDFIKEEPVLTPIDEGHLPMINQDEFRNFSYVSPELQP
# Method: as §1, §2
# [6] = biological target: PKC-δ (Homo sapiens, UniProt Q05655); test: PKC isoform translocation in A549-tGFP cells; type: cell-based; parameters: host or cells: A549; conditions: for EC50: A549-tGFP cells, 60 minutes, read-out: EC50 for PKC-δ translocation; for ε selectivity, PKC-δ: EC50 of PKC-δ divided by EC50 of PKC-ε
# Chain of PKC-δ (Q05655 whole entry, canonical isoform): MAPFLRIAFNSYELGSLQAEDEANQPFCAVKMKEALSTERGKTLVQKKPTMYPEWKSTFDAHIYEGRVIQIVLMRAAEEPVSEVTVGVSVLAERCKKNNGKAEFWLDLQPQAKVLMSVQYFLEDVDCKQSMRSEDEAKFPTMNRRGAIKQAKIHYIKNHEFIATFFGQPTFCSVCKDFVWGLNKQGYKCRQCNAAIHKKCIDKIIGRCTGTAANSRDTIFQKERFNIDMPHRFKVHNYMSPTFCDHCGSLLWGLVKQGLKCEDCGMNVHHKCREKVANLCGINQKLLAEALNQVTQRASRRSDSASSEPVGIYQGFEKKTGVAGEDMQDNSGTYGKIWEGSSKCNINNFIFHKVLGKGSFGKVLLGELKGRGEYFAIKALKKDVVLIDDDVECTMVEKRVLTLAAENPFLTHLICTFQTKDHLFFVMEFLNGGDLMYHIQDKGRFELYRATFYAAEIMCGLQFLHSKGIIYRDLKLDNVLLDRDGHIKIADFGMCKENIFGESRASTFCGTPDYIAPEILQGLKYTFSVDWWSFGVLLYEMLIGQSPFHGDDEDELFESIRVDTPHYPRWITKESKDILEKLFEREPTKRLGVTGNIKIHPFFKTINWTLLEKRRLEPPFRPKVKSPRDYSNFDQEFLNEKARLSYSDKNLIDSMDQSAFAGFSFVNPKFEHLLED
# Method: as §1, §2
# [7] = tested on: CD69 on CD4+ T cells; test: CD4+ T-cell activation flow cytometry (CD69); type: cell-based; conditions: Homo sapiens; CD4+ T cells from ART-suppressed people with HIV; read-out: EC50, activation of CD69 expression
# Method: Sixteen hours post treatment with PKC agonists, cellular activation of 100,000 CD4^+ T cells, taken from the above ex vivo HIV activation cultures, was assessed using flow cytometry. Cell surface expression of CD69 was measured on CD4^+ T cells using anti-human CD3 (UCHT1), CD4 (SK3) and CD69 (FN50) antibodies and standard flow staining methods. Stained cells were acquired on the Becton Dickinson (BD) LSR Fortessa II flow cytometer and results were analyzed using FlowJo software.
# [8] = tested on: platelets (CD62P+) and CD4+ T cells (CD69+) in whole blood; test: In vitro whole blood platelet and CD4+ T-cell activation assay; type: cell-based, human; conditions: for CD62P EC50/CD69 EC50 ratio Geomean: whole blood from healthy donors, platelets to CD4+ T cells
# Method: We developed a novel human whole blood assay to determine whether other PKC agonists also activate platelets at the same concentrations that are required to activate CD4^+ T cells. Platelet activation was assessed by CD62P (P-selectin), which traffics to the cell surface upon activation and α-granule release. CD4^+ T-cell activation was assessed by CD69 upregulation (Fig 7A).
# Whole blood was drawn into sodium citrate tubes using a 21-gauge needle. To prevent potential interference from tissue thromboplastin released during venipuncture, which could affect the accuracy of coagulation testing, the first 2 mL of blood drawn was discarded. PKC agonist molecules were dispensed in a dilution series into 80 μL of blood per well in a flat-bottom 96-well plate and mixed gently. Care was taken not to introduce any mechanical stress-related activation of platelets. […] The remaining 72 μL of blood in the first plate was incubated for 1 additional hour and stained with anti-human CD3 (UCHT1), CD4 (SK3), and CD69 (FN50) (30 minutes in the dark). Red blood cell lysis and fixing was done using BD lyse/fix solution. Stained cells were acquired on BD LSR Fortessa II after washing. […] EC50 values for platelet and CD4 T-cell activation for each agonist was obtained by nonlinear regression curve fit using GraphPad Prism version 9.3.0.
Compound,EC50 [4],"ε selectivity, PKC-θ [4]",EC50 [5],"ε selectivity, PKC-η [5]",EC50 [6],"ε selectivity, PKC-δ [6]",EC50 [7],CD62P EC50/CD69 EC50 ratio Geomean [8],other results
Cc1ccc(C#Cc2ccc(C(=O)OCC3(CO)Cc4c(-c5ccccc5)ccnc4O3)cc2)cc1 (centres unmarked) [C-233],1500 nM,6,1100 nM,5,47000 nM,196,99 nM,5.1,"EGR1 and CD69 mRNA induction versus C-232A (1 mg/kg) ([1]; 10 mg/kg): higher induction of EGR1 and CD69 mRNA levels; EC50 [2]: 428 nM; platelets and mean platelet volume ([3]; 10 mg/kg): without any significant depletion of platelets or increased mean platelet volume; adverse events ([3]; 10 mg/kg, single IV infusion): no adverse events were observed; more potent for T-cell activation relative to platelet activation ([8]; whole blood): 5 fold; improvement relative to the other classes of PKC agonists tested ([8]; whole blood, T-cell versus platelet potency): 2.4- to 3 fold"
Cc1ccc(C#Cc2ccc3oc(CC(C)(C)C(=O)OCC4(CO)CC(=CCC(CC(C)C)CC(C)C)C(=O)O4)cc3c2)cc1 (centres unmarked) [C-232A],176 nM and 180 nM,3,100 nM,2,714 nM and 710 nM,12,57 nM,1.7,"EGR1 and CD69 transcription ([1]; 0.1-3 mg/kg): dose-dependent increases in EGR1 and CD69 transcription; rats euthanized due to severe clinical signs ([3]; 1 mg/kg, single IV infusion): 1 of the 6 and 1 of 6; histopathology ([3]; 3 mg/kg): thrombi associated with congestion and hemorrhage in the lung and brain; outcome (moribund condition) ([3]; 3 mg/kg, single IV infusion, n = 6): euthanized within 6 hours postdose; tolerability ([3]; 0.1 and 0.3 mg/kg, single IV infusion, 6 rats): well tolerated; circulating platelet counts ([3]; higher doses): < 100,000 platelets/µL; mean platelet volume ([3]; higher doses): > 15 fL"
